The nature of assay [1]: Oral syrup in human (Example IX). The settings on record: one teaspoon of syrup, 70 kg adult human. The format is in vivo. As to the method:
(§1) A composition for oral administration is prepared by combining the following ingredients:
The above ingredients are combined to produce a syrup and are packaged under sterile conditions in 6 oz. bottles.

The nature of the next assay: Rodent Hot Plate Test. The format is in vivo, male Sprague-Dawley rats. As to the method: The degree of thermal analgesia obtained is determined using the "rodent hot plate test" (RHP). The RHP system is designed to detect and evaluate agents which elevate the threshold for the perception of pain. Classically, this method has been utilized primarily to evaluate opioid (narcotic) analgesic agents, such as morphine.
Male Sprague-Dawley rats (Charles River Breeding Laboratories Inc.) weighing between 100 and 125 grams upon arrival are used to evaluate the compounds of the present invention. Animals are double housed in stainless steel cages, and are fed Purina Rat Chow and tap water ad libitum. The animals are food fasted the afternoon proceeding the day of the study, and food is returned 5 hours post-treatment. Animals not being dosed by oral gavage are not fasted.
The apparatus for evaluating analgesic activity consists of an insulated copper hot plate whose surface is maintained at 55°±0.5° C. by a circulating water bath. A bottomless glass container (12" (30 cm) tall by 8" (20 cm) diameter) is used to restrict the animal to a defined area of the hot plate. After dosing, the animal is placed through the top opening of the container, and a stop watch is started when the animal makes contact with the plate. The stop-watch is stopped upon either of the following visually observed end points: (1) licking or biting of either hind paw, or (2) jumping. If the jump is not successful but both hind paws leave the surface of the plate in an effort to jump, this is considered jumping. The stop-watch is stopped at the end point and the animal is immediately removed from the hot plate. The time (latency) between the initial contact of the animal on the hot plate and the endpoint is recorded.
Prior to dosing, animals are tested on the hot plate. This is denoted as pretest or base line latency. Usually, the animals are dosed by oral gavage, using a 1 cubic cm glass syringe connected to a size 8 french catheter. The dose volume is 5 ml/kg. On occasion, the animals are dosed by either subcutaneous administration or intravenous injection. Using the subcutaneous administration, a 1 ml tuberculin syringe is connected to a 25 gauge 5/8 inch needle, and injected under the skin in the neck or back region. For intravenous dosing, a 1 ml tuberculin syringe is connected to a 25 gauge 3/4 inch winged infusion set, and injected into the tail vein. The dose volume for subcutaneous and intravenous routes is 1 ml/kg. The latency times are typically recorded at 1.5, 3, 5, and 24 hours post-treatment. Much shorter times are recorded for an intravenous administration.

Assay [2] is described as follows: Oral soft gelatin capsules in human (Example VIII). Conditions: two oral capsules, 225 mg of composition each, 60 kg human. The format is in vivo. As to the method: as §1
The octadecenamide is dissolved in the sesame oil with the aid of sonication and is packaged in soft gelatin capsules using methods known in the art.

The nature of assay [3]: Topical application to human forearm (Example X). The format is in vivo. Conditions: replacing N-((4-(2-methyl-2-aminopropoxy)-3-methoxyphenyl)-methyl)-9Z-octadecenamide. As to the method:
A composition for topical administration is prepared by combining the following ingredients:
The octadecenamide is dissolved in a solution containing the other ingredients. Application of 0.4 ml of the resulting liquid to a 80 cm^2 portion of the forearm of a 60 kg human produces local analgesia which lasts approximately two days.

A short description of assay [4]: Carrageenan Rat Paw Edema Test. The format is in vivo, male Sprague Dawley rats. The settings on record: oral (stomach tube), 1 h before carrageenan, paw volume 4 h after carrageenan. As to the method:
Compounds of the present invention are tested for anti-inflammatory activity using the Carrageenan Rat Paw Edema Test.
Male Sprague Dawley rats (Charles River Breeding Laboratories Inc.) are weighed and food fasted overnight. The animals are divided into four to six groups of six animals each according to body weights, average about 145 g, so that each group has about the same average weight (within 10 g).
The following morning five ml of water is dosed orally via stomach tube to each animal to facilitate paw swelling. Thirty minutes later the animals are dosed with the test compound and then placed in individual cages. The compound of the present invention is dissolved in distilled deionized water with 1 equivalent of 1N acetic acid and delivered via stomach tube in 1 ml volume.
One hour after dosing the test compound, the animals are placed in a plastic restrainer and 50 ul of a 1% (w/w) carrageenan solution in 0.9% saline is injected into the ventral surface of the left rear paw. Paw volumes (0 time) are determined on both hind paws with a mercury displacement device equipped with a transducer and digitizer following the carrageenan injection. Four hours after the carrageenan injection, the paw volumes are again determined.
The results are expressed as percent inhibition of the mean paw volume of the test group relative to the control group according to the formula:
(C-T a..n)/C×100=Percent Inhibition
where C is the average difference in paw volume before and after carrageenan-induced swelling, and
Ta..n is the difference in paw swelling in the treated animals (a..n). Statistical differences are determined by one way analysis of variance.

A short description of assay [5]: Mouse Abdominal Constriction Assay (phenylquinone writhing). In kind it is in vivo, male CF-1 mice. Conditions: for % Analgesia: 1.5 h post-dose. As to the method:
Compounds of the present invention are tested for analgesic activity using the mouse abdominal constriction assay. This assay is described in Hendershot and Forsaith, J. Pharmacol. Exo.
Male CF-1 mice (Charles River Breeding Laboratories, Inc.), weighing approximately 20 grams and food fasted overnight, are used in these assays. Test compounds are prepared for oral (p.o.) or subcutaneous (s.c.) administration, with compounds of the present invention being prepared in acidified (1N acetic acid) distilled deionized water so that the appropriate dose is given in 0.2 mls to a 20 gram mouse.
Ten minutes after the i.p. injection of phenylquinone, the number of full body writhes are counted for the succeeding ten minutes. Percent analgesia in this assay is calculated as follows: [formula]

The conditions of assay [6]: unless administered in toxic quantities; antipyretic analgesics; cited from earlier work.

Structures are written as SMILES.

With `CCCCCCCC/C=C\CCCCCCCCNC(=O)Cc1ccc(OCCN)c(OC)c1` [N-(9Z-octadecenyl)-4-(2-aminoethoxy)-3-methoxyphenylacetamide], the analgesia entry in assay [1] is reported as “producing analgesia”; in assay [2], “increased analgesic effect”. In addition, the reduction of inflammation entry in assay [1] is “reducing inflammation”; in assay [2], “substantially similar reduction of inflammation”. The “Mean Latency Times” value turned out to be 6.7 s in “Rodent Hot Plate Test” (10 mg/kg oral, 1.5 hr post dose); 15.3 s in “Rodent Hot Plate Test” (10 mg/kg oral, 3 hr post dose); 13.5 s in the assay “Rodent Hot Plate Test” (10 mg/kg oral, 5 hr post dose); 9.1 s in “Rodent Hot Plate Test” (10 mg/kg oral, 24 hr post dose); 10.5 s in the assay “Rodent Hot Plate Test” (25 mg/kg oral, 1.5 hr post dose); 11.2 s in “Rodent Hot Plate Test” (25 mg/kg oral, 3 hr post dose). Also, the “Mean Latency Times” value in “Rodent Hot Plate Test” (25 mg/kg oral, 5 hr post dose) was found to be 10.8 s; in the assay “Rodent Hot Plate Test” (25 mg/kg oral, 24 hr post dose), 8.0 s; in “Rodent Hot Plate Test” (50 mg/kg oral, 1.5 hr post dose), 24.5 s; in the assay “Rodent Hot Plate Test” (50 mg/kg oral, 3 hr post dose), 12.2 s; in “Rodent Hot Plate Test” (50 mg/kg oral, 5 hr post dose), 10.6 s; in “Rodent Hot Plate Test” (50 mg/kg oral, 24 hr post dose), 15.9 s. The “Mean Latency Times” value turned out to be 16.4 s in “Rodent Hot Plate Test” (100 mg/kg oral, 1.5 hr post dose); 13.4 s in the assay “Rodent Hot Plate Test” (100 mg/kg oral, 3 hr post dose); 11.9 s in “Rodent Hot Plate Test” (100 mg/kg oral, 5 hr post dose); 21.5 s in “Rodent Hot Plate Test” (100 mg/kg oral, 24 hr post dose). Moreover, the local analgesic effect entry in assay [3] is given as “substantially similar local analgesic effect”.
In the case of `CCCCCCCC/C=C\CCCCCCCC(=O)NCc1ccc(OCCN)c(OC)c1` [N-((4-(2-aminoethoxy)-3-methoxyphenyl)-methyl)-9Z-octadecenamide], the “% Inhibition (of paw volume/swelling vs control)” value in assay [4] (25 mg/kg) was determined as 53.5%; in assay [4] (50 mg/kg), 73.7%; in assay [4] (100 mg/kg), 64.9%; in assay [4] (200 mg/kg), 61.4%. Besides, the analgesia result in assay [1] was “substantially similar reduction of inflammation and analgesic effect”; in assay [2], “producing analogesia”. Moreover, the reduction of inflammation result was “substantially similar reduction of inflammation” in assay [1] and “reducing inflammation” in assay [2]. Further, the “Mean Latency Times” value stood at 21.8 s in “Rodent Hot Plate Test” (75 mg/kg oral, 1.5 hr post dose); 18.9 s in the assay “Rodent Hot Plate Test” (75 mg/kg oral, 3 hr post dose); 18.7 s in “Rodent Hot Plate Test” (75 mg/kg oral, 5 hr post dose); 11.2 s in the assay “Rodent Hot Plate Test” (75 mg/kg oral, 24 hr post dose); 30.6 s in the assay “Rodent Hot Plate Test” (150 mg/kg oral, 1.5 hr post dose); 18.9 s in the assay “Rodent Hot Plate Test” (150 mg/kg oral, 3 hr post dose). The “Mean Latency Times” value in the assay “Rodent Hot Plate Test” (150 mg/kg oral, 5 hr post dose) stood at 15.0 s; in “Rodent Hot Plate Test” (150 mg/kg oral, 24 hr post dose) it was 11.5 s; in “Rodent Hot Plate Test” (300 mg/kg oral, 1.5 hr post dose), 30.7 s; in the assay “Rodent Hot Plate Test” (300 mg/kg oral, 3 hr post dose) it was 22.6 s; in “Rodent Hot Plate Test” (300 mg/kg oral, 5 hr post dose), 21.0 s; in the assay “Rodent Hot Plate Test” (300 mg/kg oral, 24 hr post dose), 16.5 s. Further, in the assay “Rodent Hot Plate Test” (oral), the “potency and efficacy relative to codeine” value was “at least as potent and efficacious as the known opiate codeine”. Moreover, the “% Analgesia” value was 22.3% in assay [5] (1 mg/kg subcutaneous); -13.7% in assay [5] (2 mg/kg subcutaneous); 34.3% in assay [5] (4 mg/kg subcutaneous); 57.8% in assay [5] (8 mg/kg subcutaneous); 55.8% in assay [5] (10 mg/kg oral); 91.4% in assay [5] (10 mg/kg subcutaneous). Moreover, the “% Analgesia” value is 71.7% in assay [5] (25 mg/kg oral); 88.3% in assay [5] (75 mg/kg oral); 99.0% in assay [5] (100 mg/kg subcutaneous); 95.5% in assay [5] (150 mg/kg oral); 93.2% in assay [5] (300 mg/kg oral). Also, the “analgesic potency compared with N-vanillyloleamide” value in assay [5] (oral, at a substantially lower dose) is “substantially greater analgesic potency at a substantially lower dose”.
Turning to `CC(=O)Nc1ccc(O)cc1` [acetaminophen], the “activity in the RHP system” value in assay [6] is recorded as “little or no activity”.
In the case of `CC(=O)Oc1ccccc1C(=O)O` [aspirin], in assay [6], the “activity in the RHP system” value was “little or no activity”.
